# System: Escherichia coli
# Assay: Antibacterial activity against Escherichia coli in presence of permeabilizer and EDTA
# Assay type: functional
row,MIC,SMILES
1,32 µg/mL,NCCNc1ccnc2nc(N3CCCC3)c(F)cc12

# Biological target: not listed separately
# Assay: Inhibitory concentration against luciferase synthesis in Streptococcus pneumoniae
# Assay type: functional
row,SMILES,IC50
1,CC(C)NC(=O)c1cnc2nc(N3CCC(N)C3)c(F)cc2c1O (configuration not stated),> 100 µM
2,OCc1cnc2nc(N3CCCC3)c(F)cc2c1O,> 100 µM
3,NC1CCN(c2nc3ncc(C(=O)O)c(O)c3cc2F)C1 (configuration not stated),5 µM
4,CN(C)CCNCc1cnc2nc(N3CCCC3)c(F)cc2c1O,> 100 µM
5,OCCNc1ccnc2nc(N3CCCC3)c(F)cc12,91 µM
6,CCOC(=O)c1cnc2nc(N3CCCC3)c(F)cc2c1O,> 100 µM
7,NNc1ccnc2nc(N3CCCC3)c(F)cc12,89 µM
8,Oc1c(CNc2ccccc2)cnc2nc(N3CCCC3)c(F)cc12,> 100 µM
9,NC1CCN(c2nc3ncc(CNc4ccccc4)c(O)c3cc2F)C1 (configuration not stated),54 µM
10,O=C(O)CNc1ccnc2nc(N3CCCC3)c(F)cc12,> 100 µM
11,CC(C)CCN(C)C(=O)c1cnc2nc(N3CCC(N)C3)c(F)cc2c1O (configuration not stated),> 100 µM
12,O=C(NO)c1cnc2nc(N3CCCC3)c(F)cc2c1O,> 100 µM
13,CC(Nc1ccnc2nc(N3CCCC3)c(F)cc12)c1ccccc1 (configuration not stated),> 100 µM
14,Oc1c(CNCc2ccccc2)cnc2nc(N3CCCC3)c(F)cc12,> 100 µM
15,O=C(O)c1cnc2nc(N3CCCC3)c(F)cc2c1O,10 µM
16,O=Cc1cnc2nc(N3CCCC3)c(F)cc2c1O,> 100 µM
17,Oc1ccnc2nc(N3CCCC3)c(F)cc12,> 100 µM
18,NC(=O)CNc1ccnc2nc(N3CCCC3)c(F)cc12,82 µM
19,Fc1cc2c(N3CCNCC3)ccnc2nc1N1CCCC1,> 100 µM

# More lines, now with the values ahead:
row,IC50,SMILES
1,10 µM,NC1CCN(c2nc3ncc(CNCCCc4ccccc4)c(O)c3cc2F)C1 (configuration not stated)
2,50 µM,CC(=O)c1cnc2nc(N3CCC(N)C3)c(F)cc2c1O (configuration not stated)
3,18 µM,CN(C)CCN(C)c1ccnc2nc(N3CCCC3)c(F)cc12
4,23 µM,NC(=O)c1cnc2nc(N3CCC(N)C3)c(F)cc2c1O (configuration not stated)
5,25 µM,CC(C)CCNC(=O)c1cnc2nc(N3CCC(N)C3)c(F)cc2c1O (configuration not stated)
6,39 µM,COCCNc1ccnc2nc(N3CCCC3)c(F)cc12
7,19 µM,CCCNc1ccnc2nc(N3CCCC3)c(F)cc12
8,25 µM,NC1CCN(c2nc3ncc(CNCc4ccccc4)c(O)c3cc2F)C1 (configuration not stated)
9,11 µM,NCCNc1ccnc2nc(N3CCCC3)c(F)cc12
10,10 µM,CCN(CC)CCCNCc1cnc2nc(N3CCC(N)C3)c(F)cc2c1O (configuration not stated)
11,20 µM,CCOC(=O)c1cnc2nc(N3CCC(N)C3)c(F)cc2c1O (configuration not stated)

# System: Streptococcus pneumoniae
# Assay: Antibacterial activity against Quinolone-resistant Streptococcus pneumoniae 7257
# Assay type: functional
row,SMILES,MIC
1,NC1CCN(c2nc3ncc(C(=O)O)c(O)c3cc2F)C1 (configuration not stated),32 µg/mL
2,O=C(O)c1cnc2nc(N3CCCC3)c(F)cc2c1O,4 µg/mL

# System: Haemophilus influenzae
# Assay: Antibacterial activity against Haemophilus influenzae GYR 1435
# Assay type: functional
row,SMILES,MIC
1,NC1CCN(c2nc3ncc(C(=O)O)c(O)c3cc2F)C1 (configuration not stated),4 µg/mL
2,C[C@H]1COc2c(N3CCN(C)CC3)c(F)cc3c(=O)c(C(=O)O)cn1c23.C[C@H]1COc2c(N3CCN(C)CC3)c(F)cc3c(=O)c(C(=O)O)cn1c23.O [LEVOFLOXACIN],0.015 µg/mL
3,O=C(O)c1cnc2nc(N3CCCC3)c(F)cc2c1O,1 µg/mL

# System: Escherichia coli
# Assay: Antibacterial activity against Escherichia coli
# Assay type: functional
row,MIC,SMILES
1,> 128 µg/mL,NCCNc1ccnc2nc(N3CCCC3)c(F)cc12
